US20240293413A1, “COMPOUND AND METHOD FOR TREATING CHEMOTHERAPY-RELATED GASTROINTESTINAL SIDE EFFECTS” (ONQUALITY PHARMACEUTICALS CHINA LTD., priority 2021, published 2024)

Assays:
Type in all cases: in vivo
[1] = test system: diarrhea caused by a chemotherapeutic agent in Balb/c mice; assay: Examples 230-271 (Table 4): oral CDK inhibitor, relief of diarrhea caused by a chemotherapeutic agent
Procedure, shortened: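 Balb/c mice, 10 per group (vehicle, chemotherapeutic agent, CDK inhibitor plus chemotherapeutic); CDK inhibitor dosed intragastrically before the chemotherapeutic agent by injection or gavage. Diarrhea graded daily.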

[2] = test system: Chemotherapeutic agent-caused diarrhea models of Balb/c mice; assay: Examples 1-229 (Table 3): oral CDK inhibitor, relief of diarrhea caused by a chemotherapeutic agent;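 further: percent of treated mice whose diarrhea grade fell below chemotherapy-group average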
[3] = test system: diarrhea caused by a chemotherapeutic agent in Balb/c mice; assay: Examples 343-381 (Table 6): oral versus intravenous CDK inhibitor, relief of diarrhea caused by a chemotherapeutic agent;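 further: percent of treated mice whose diarrhea grade fell below chemotherapy-group average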
Procedure, shortened: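 Balb/c mice (10 per group) received the CDK inhibitor orally or by tail-vein injection, or vehicle, followed by a chemotherapeutic agent or its solvent. Diarrhea grade was scored daily.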

Compound: CC(=O)c1c(C)c2cnc(Nc3ccc(N4CCNCC4)cn3)nc2n(C2CCCC2)c1=O [Palbociclib]
- Relative remission rate ([1]; Example 230, Doxorubicin (Dox) intraperitoneal injection 10 mg/kg single, CDK inhibitor oral 150 mg/kg single, 0.5 h before, cycle 12 days): 50%
- Relative remission rate ([1]; Example 231, Doxorubicin (Dox) intraperitoneal injection 10 mg/kg single, CDK inhibitor oral 150 mg/kg single, 4 h before, cycle 12 days): 70%
- Relative remission rate ([1]; Example 232, Doxorubicin (Dox) intraperitoneal injection 10 mg/kg single, CDK inhibitor oral 150 mg/kg single, 8 h before, cycle 12 days): 70%
- Relative remission rate ([1]; Example 233, Doxorubicin (Dox) intraperitoneal injection 10 mg/kg single, CDK inhibitor oral 150 mg/kg single, 12 h before, cycle 12 days): 80%
- Relative remission rate ([1]; Example 234, Doxorubicin (Dox) intraperitoneal injection 10 mg/kg single, CDK inhibitor oral 150 mg/kg single, 24 h before, cycle 12 days): 50%
- Relative remission rate ([1]; Example 235, Doxorubicin (Dox) intraperitoneal injection 10 mg/kg single, CDK inhibitor oral 150 mg/kg single, 48 h before, cycle 12 days): 0%
- Relative remission rate ([1]; Example 249, Methotrexate (MTX) oral administration 400 mg/kg single, CDK inhibitor oral 125 mg/kg single, 4 h before, cycle 7 days): 60%
- Relative remission rate ([1]; Example 250, Methotrexate (MTX) oral administration 400 mg/kg single, CDK inhibitor oral 125 mg/kg single, 24 h before, cycle 7 days): 60%
- Relative remission rate ([1]; Example 260, Cytarabine (Ara-C) intravenous injection 600 mg/kg single, CDK inhibitor oral 150 mg/kg single, 6 h before, cycle 8 days): 60%
- Relative remission rate ([1]; Example 271, Vinorelbine (NVB) intraperitoneal injection 10 mg/kg single, CDK inhibitor oral 200 mg/kg single, 12 h before, cycle 7 days): 70%
- Relative remission rate (%) ([2]; Example 1, Fluorouracil (5-Fu) intraperitoneal injection 125 mg/kg single, CDK inhibitor oral 150 mg/kg single 0.5 h before, cycle 10 days): 20%
- Relative remission rate (%) ([2]; Example 2, Fluorouracil (5-Fu) intraperitoneal injection 125 mg/kg single, CDK inhibitor oral 150 mg/kg single 1 h before, cycle 10 days): 20%
- Relative remission rate (%) ([2]; Example 3, Fluorouracil (5-Fu) intraperitoneal injection 125 mg/kg single, CDK inhibitor oral 150 mg/kg single 2 h before, cycle 10 days): 30%
- Relative remission rate (%) ([2]; Example 4, Fluorouracil (5-Fu) intraperitoneal injection 125 mg/kg single, CDK inhibitor oral 150 mg/kg single 3 h before, cycle 10 days): 40%
- Relative remission rate (%) ([2]; Example 5, Fluorouracil (5-Fu) intraperitoneal injection 125 mg/kg single, CDK inhibitor oral 150 mg/kg single 4 h before, cycle 10 days): 40%
- Relative remission rate (%) ([2]; Example 6, Fluorouracil (5-Fu) intraperitoneal injection 125 mg/kg single, CDK inhibitor oral 150 mg/kg single 5 h before, cycle 10 days): 50%
- Relative remission rate (%) ([2]; Example 7, Fluorouracil (5-Fu) intraperitoneal injection 125 mg/kg single, CDK inhibitor oral 150 mg/kg single 6 h before, cycle 10 days): 50%
- Relative remission rate (%) ([2]; Example 8, Fluorouracil (5-Fu) intraperitoneal injection 125 mg/kg single, CDK inhibitor oral 150 mg/kg single 7 h before, cycle 10 days): 60%
- Relative remission rate (%) ([2]; Example 9, Fluorouracil (5-Fu) intraperitoneal injection 125 mg/kg single, CDK inhibitor oral 150 mg/kg single 8 h before, cycle 10 days): 60%
- Relative remission rate (%) ([2]; Example 10, Fluorouracil (5-Fu) intraperitoneal injection 125 mg/kg single, CDK inhibitor oral 150 mg/kg single 9 h before, cycle 10 days): 50%
- Relative remission rate (%) ([2]; Example 11, Fluorouracil (5-Fu) intraperitoneal injection 125 mg/kg single, CDK inhibitor oral 150 mg/kg single 10 h before, cycle 10 days): 60%
- Relative remission rate (%) ([2]; Example 12, Fluorouracil (5-Fu) intraperitoneal injection 125 mg/kg single, CDK inhibitor oral 150 mg/kg single 11 h before, cycle 10 days): 70%
- Relative remission rate (%) ([2]; Example 13, Fluorouracil (5-Fu) intraperitoneal injection 125 mg/kg single, CDK inhibitor oral 150 mg/kg single 12 h before, cycle 10 days): 80%
- Relative remission rate (%) ([2]; Example 14, Fluorouracil (5-Fu) intraperitoneal injection 125 mg/kg single, CDK inhibitor oral 12.5 mg/kg single 13 h before, cycle 10 days): 40%
- Relative remission rate (%) ([2]; Example 15, Fluorouracil (5-Fu) intraperitoneal injection 125 mg/kg single, CDK inhibitor oral 25 mg/kg single 13 h before, cycle 10 days): 80%
- Relative remission rate (%) ([2]; Example 16, Fluorouracil (5-Fu) intraperitoneal injection 125 mg/kg single, CDK inhibitor oral 50 mg/kg single 13 h before, cycle 10 days): 60%
- Relative remission rate (%) ([2]; Example 17, Fluorouracil (5-Fu) intraperitoneal injection 125 mg/kg single, CDK inhibitor oral 100 mg/kg single 13 h before, cycle 10 days): 80%
- Relative remission rate (%) ([2]; Example 18, Fluorouracil (5-Fu) intraperitoneal injection 125 mg/kg single, CDK inhibitor oral 150 mg/kg single 13 h before, cycle 10 days): 80%
- Relative remission rate (%) ([2]; Example 19, Fluorouracil (5-Fu) intraperitoneal injection 125 mg/kg single, CDK inhibitor oral 250 mg/kg single 13 h before, cycle 10 days): 60%
- Relative remission rate (%) ([2]; Example 20, Fluorouracil (5-Fu) intraperitoneal injection 125 mg/kg single, CDK inhibitor oral 150 mg/kg single 14 h before, cycle 10 days): 70%
- Relative remission rate (%) ([2]; Example 21, Fluorouracil (5-Fu) intraperitoneal injection 125 mg/kg single, CDK inhibitor oral 150 mg/kg single 16 h before, cycle 10 days): 60%
- Relative remission rate (%) ([2]; Example 22, Fluorouracil (5-Fu) intraperitoneal injection 125 mg/kg single, CDK inhibitor oral 150 mg/kg single 18 h before, cycle 10 days): 60%
- Relative remission rate (%) ([2]; Example 23, Fluorouracil (5-Fu) intraperitoneal injection 125 mg/kg single, CDK inhibitor oral 150 mg/kg single 20 h before, cycle 10 days): 50%
- Relative remission rate (%) ([2]; Example 24, Fluorouracil (5-Fu) intraperitoneal injection 125 mg/kg single, CDK inhibitor oral 150 mg/kg single 22 h before, cycle 10 days): 40%
- Relative remission rate (%) ([2]; Example 25, Fluorouracil (5-Fu) intraperitoneal injection 125 mg/kg single, CDK inhibitor oral 150 mg/kg single 24 h before, cycle 10 days): 40%
- Relative remission rate (%) ([2]; Example 26, Fluorouracil (5-Fu) intraperitoneal injection 125 mg/kg single, CDK inhibitor oral 150 mg/kg single 48 h before, cycle 10 days): 0%
- Relative remission rate (%) ([2]; Example 44, Fluorouracil (5-Fu) oral administration 250 mg/kg single, CDK inhibitor oral 125 mg/kg single 4 h before, cycle 10 days): 60%
- Relative remission rate (%) ([2]; Example 88, Oxaliplatin intravenous injection 17.5 mg/kg single, CDK inhibitor oral 150 mg/kg single 6 h before, cycle 8 days): 50%
- Relative remission rate (%) ([2]; Example 129, Irinotecan (CPT-11) intravenous injection 200 mg/kg single, CDK inhibitor oral 200 mg/kg single 14 h before, cycle 7 days): 60%
- Relative remission rate (%) ([2]; Example 166, Docetaxel (DTX) intramuscular injection 20 mg/kg single, CDK inhibitor oral 150 mg/kg single 5 h before, cycle 8 days): 80%
- Relative remission rate (%) ([2]; Example 228, Etoposide 60 mg/kg and Carboplatin 5 mg/kg intraperitoneal injection single, CDK inhibitor oral 150 mg/kg single, 12 h before, 10 days): 60%
- Relative remission rate ([3]; Example 343, Etoposide intravenous injection 75 mg/kg single, CDK inhibitor intravenous injection 150 mg/kg single, 0.5 h before chemotherapeutic agent, cycle 8 days): 10%
- Relative remission rate ([3]; Example 343, Etoposide intravenous injection 75 mg/kg single, CDK inhibitor oral 150 mg/kg single, 0.5 h before chemotherapeutic agent, cycle 8 days): 40%
- Relative remission rate ([3]; Example 344, Etoposide intravenous injection 75 mg/kg single, CDK inhibitor intravenous injection 150 mg/kg single, 4 h before, cycle 8 days): 10%
- Relative remission rate ([3]; Example 344, Etoposide intravenous injection 75 mg/kg single, CDK inhibitor oral 150 mg/kg single, 4 h before, cycle 8 days): 80%
- Relative remission rate ([3]; Example 345, Etoposide intravenous injection 75 mg/kg single, CDK inhibitor intravenous injection 150 mg/kg single, 8 h before, cycle 8 days): 10%
- Relative remission rate ([3]; Example 345, Etoposide intravenous injection 75 mg/kg single, CDK inhibitor oral 150 mg/kg single, 8 h before, cycle 8 days): 60%
- Relative remission rate ([3]; Example 346, Etoposide intravenous injection 75 mg/kg single, CDK inhibitor intravenous injection 150 mg/kg single, 12 h before, cycle 8 days): 20%
- Relative remission rate ([3]; Example 346, Etoposide intravenous injection 75 mg/kg single, CDK inhibitor oral 150 mg/kg single, 12 h before, cycle 8 days): 60%
- Relative remission rate ([3]; Example 347, Etoposide intravenous injection 75 mg/kg single, CDK inhibitor intravenous injection 150 mg/kg single, 24 h before, cycle 8 days): 10%
- Relative remission rate ([3]; Example 347, Etoposide intravenous injection 75 mg/kg single, CDK inhibitor oral 150 mg/kg single, 24 h before, cycle 8 days): 60%
- Relative remission rate ([3]; Example 357, Etoposide and cisplatin intravenous injection 50 (E) 5 (Cis) mg/kg single, CDK inhibitor intravenous injection 125 mg/kg single, 4 h before, cycle 7 days): 20%
- Relative remission rate ([3]; Example 357, Etoposide and cisplatin intravenous injection 50 (E) 5 (Cis) mg/kg single, CDK inhibitor oral 125 mg/kg single, 4 h before, cycle 7 days): 70%
- Relative remission rate ([3]; Example 358, Etoposide and cisplatin intravenous injection 50 (E) 5 (Cis) mg/kg single, CDK inhibitor intravenous injection 125 mg/kg single, 24 h before, cycle 7 days): 10%
- Relative remission rate ([3]; Example 358, Etoposide and cisplatin intravenous injection 50 (E) 5 (Cis) mg/kg single, CDK inhibitor oral 125 mg/kg single, 24 h before, cycle 7 days): 40%
- Relative remission rate ([3]; Example 366, Carboplatin (CBP) oral administration 200 mg/kg single, CDK inhibitor intravenous injection 150 mg/kg single, 24 h before, cycle 10 days): 10%
- Relative remission rate ([3]; Example 366, Carboplatin (CBP) oral administration 200 mg/kg single, CDK inhibitor oral 150 mg/kg single, 24 h before, cycle 10 days): 50%
- Relative remission rate ([3]; Example 378, Gemcitabine (GEM) intravenous injection 120 mg/kg single, CDK inhibitor intravenous injection 200 mg/kg single, 12 h before, cycle 8 days): 10%
- Relative remission rate ([3]; Example 378, Gemcitabine (GEM) intravenous injection 120 mg/kg single, CDK inhibitor oral 200 mg/kg single, 12 h before, cycle 8 days): 50%
- Relative remission rate ([3]; Example 379, Gemcitabine (GEM) intravenous injection 120 mg/kg single, CDK inhibitor intravenous injection 200 mg/kg single, 12 h before, cycle 8 days): 20%
- Relative remission rate ([3]; Example 379, Gemcitabine (GEM) intravenous injection 120 mg/kg single, CDK inhibitor oral 200 mg/kg single, 12 h before, cycle 8 days): 60%
